Results: patent US20040053898A1, “Combination preparation with a erbeta selective estrogen and serm or antiestorgen” (priority 2000, published 2004)

Key:
[1] = test system: human estrogen receptor α (ERα) / human estrogen receptor β (ERβ); assay: binding to human estrogen receptors α and β; conditions: human ERα than human ERβ
[2] = test system: estrogen receptor preparations of rat prostates and rat uteri; assay: estrogen receptor binding, 3H-estradiol competition, rat prostate versus rat uterus cytosol; conditions: rat prostate ER versus rat uterus ER
Method: The binding affinity of the new selective estrogens (ERβ-ligands) and SERMs was tested in competitive experiments with use of 3H-estradiol as a ligand in estrogen receptor preparations of rat prostates and rat uteri.

ERβ compared to ERα = conditions: in-vitro receptor binding test; cited from earlier work

SMILES: C[C@]12CC[C@@H]3c4ccc(O)cc4CC[C@H]3[C@@H]1C[C@@H](O)C2=O [16α-hydroxyestrone]
- binding to human ERα relative to human ERβ (fold better) [1]: 3 ×
- RBA value in rat prostate estrogen receptor relative to RBA value in rat uterus estrogen receptor (fold better) [2]: 5 ×

SMILES: O=c1c(-c2ccc(O)cc2)coc2cc(O)cc(O)c12 [genisteine]
- preference for ERβ compared to ERα (ERβ compared to ERα): ERβ-selectivity
